According to patent US9808448B2, “Pharmaceutical compounds and use of same in cancer and tauopathies” (THE REGENTS OF THE UNIVERSITY OF MICHIGAN, priority 2013, dated 2017):
Read-outs that look alike come from different tables or passages of the source.

Key:
Type in all cases: cell-based
MDA-MB-231 = assay: Cancer activity screen (MTT cell survival), MDA-MB-231; settings: Homo sapiens
MEF (C57BL/6) = assay: Cell survival, MEF; settings: Mus musculus, read-out: IC50/μM MEF (C57BL/6)
MCF-7 = assay: Cancer activity screen (MTT cell survival), MCF-7; settings: Homo sapiens, MCF7
HeLa = assay: Cancer activity screen (MTT cell survival), HeLa; settings: Homo sapiens

Compound	IC50 (MDA-MB-231; second table)	IC50 (MEF (C57BL/6); second table)	further results
CCN1C(=O)/C(=C2\Sc3ccccc3N2C)S/C1=N\c1ccccc1	> 30 µM	> 50 µM	
CCN1C(=O)/C(=C2\Sc3c(F)cccc3N2C)S/C1=N\c1ccccc1	17.7 ± 2.85 µM	> 50 µM	
CCn1c(=O)/c(=C2\Sc3ccccc3N2C)s/c1=C\c1scc[n+]1CC	2.2 ± 0.2 µM	> 30 µM	IC50 (MCF-7; second table): 0.8 ± 0.1 µM
COC(=O)Cn1c(=O)/c(=C2\Sc3ccccc3N2C)s/c1=C\c1cccc[n+]1C	16.5 ± 1.05 µM	> 50 µM	
CCn1c(=O)/c(=C2\Sc3ccccc3N2C)s/c1=C\c1cc[n+](C)cc1	3.01 ± 0.26 µM	> 50 µM	
CCn1c(=O)/c(=C2\Sc3cc(F)ccc3N2C)s/c1=C\c1cccc[n+]1CC	8.3 ± 1.1 µM	> 30 µM	IC50 (MCF-7; second table): 0.9 ± 0.3 µM
CCN1C(=O)/C(=C2\Sc3cccc(F)c3N2C)S/C1=N\c1ccccc1	> 30 µM	> 50 µM	
CCn1c(=O)/c(=C2\Sc3cc(Cl)ccc3N2C)s/c1=C\c1scc[n+]1Cc1ccccc1			IC50 (MCF-7): 0.71 ± 0.22 µM; IC50 (MDA-MB-231): 0.39 ± 0.03 µM; IC50 (MEF (C57BL/6)): 23.9 ± 1.28 µM; IC50 (HeLa): 0.83 ± 0.2 µM
CCn1c(=O)/c(=C2\Sc3ccc(Cl)cc3N2C)s/c1=C\c1scc[n+]1Cc1ccccc1			IC50 (MCF-7): 0.83 ± 0.23 µM; IC50 (MDA-MB-231): 0.62 ± 0.1 µM; IC50 (HeLa): 4.32 ± 0.43 µM
CCn1c(=O)/c(=C2\Sc3ccc(F)cc3N2C)s/c1=C\c1cccc[n+]1CC	13.3 ± 0.7 µM	> 30 µM	IC50 (MCF-7; second table): 2.4 ± 0.6 µM
COC(=O)[C@@H](C)n1c(=O)/c(=C2\Sc3cc(F)ccc3N2C)s/c1=C\c1ccccn1	> 20 µM		
CCn1c(=O)/c(=C2\Sc3cc(Cl)ccc3N2C)s/c1=C\c1scc[n+]1Cc1ccsc1C(=O)OC	0.076 ± 0.01 µM		
CCN1C(=O)/C(=C2\Sc3cc(C(F)(F)F)ccc3N2C)S/C1=N\c1ccccc1	16.2 ± 1.12 µM	> 50 µM	
CCn1c(=O)/c(=C2\Sc3cc(Cl)ccc3N2C)s/c1=C\c1ccc(C#N)c[n+]1Cc1ccccc1	1.92 ± 0.16 µM	> 50 µM	
CCn1c(=O)/c(=C2\Sc3cc(Cl)ccc3N2C)s/c1=C\c1scc[n+]1Cc1ccccc1F	0.29 ± 0.04 µM		
CCn1c(=O)/c(=C2\Sc3c(ccc(F)c3F)N2C)s/c1=C\c1scc[n+]1C	5.6 ± 0.6 µM		
C=CCn1c(=O)/c(=C2\Sc3c(F)cccc3N2C)s/c1=C\c1ccncc1	3.07 ± 0.73 µM	> 50 µM	
COC(=O)[C@@H](C)n1c(=O)/c(=C2\Sc3cc(F)ccc3N2C)s/c1=C\c1scc[n+]1Cc1ccccc1	1.2 ± 0.14 µM		
COC(=O)Cn1c(=O)/c(=C2\Sc3cc(F)ccc3N2C)s/c1=C\c1ccncc1	2 ± 0.2 µM		
CCN1C(=O)/C(=C2\Sc3ccc(F)cc3N2C)S/C1=N\c1ccccc1	9.18 ± 1.04 µM		

Compound	IC50 (MDA-MB-231; second table)	IC50 (MEF (C57BL/6); second table)	further results
COC(=O)Cn1c(=O)/c(=C2\Sc3ccccc3N2C)s/c1=C\c1ccccn1		> 50 µM	
CN1/C(=c2\s/c(=C\c3ccncc3)n(CC(=O)O)c2=O)Sc2cc(F)ccc21	> 20 µM		
CCn1c(=O)/c(=C2\Sc3cc(Cl)ccc3N2C)s/c1=C\c1scc[n+]1Cc1ccsc1	0.11 ± 0.01 µM		
CCn1c(=O)/c(=C2\Sc3cc(C#N)ccc3N2C)s/c1=C\c1cccc[n+]1Cc1ccccc1	1.4 ± 0.1 µM		
COC(=O)Cn1c(=O)/c(=C2\Sc3ccc(F)cc3N2C)s/c1=C\c1ccccn1	> 20 µM		
COC(=O)Cn1c(=O)/c(=C2\Sc3cc(C(F)(F)F)ccc3N2C)s/c1=C\c1ccccn1	> 30 µM	> 50 µM	
CCn1c(=O)/c(=C2\Sc3cc(Cl)ccc3N2C)s/c1=C\c1scc[n+]1C(C)C(=O)c1ccccc1 (stereo not drawn)	0.34 ± 0.03 µM		
CCn1c(=O)/c(=C2\Sc3c(ccc(F)c3F)N2C)s/c1=C\c1scc[n+]1Cc1ccsc1Br	0.48 ± 0.06 µM		
CCn1c(=O)/c(=C2\Sc3cc(Cl)ccc3N2C)s/c1=C\c1scc[n+]1Cc1ccc(F)cc1	1.07 ± 0.19 µM		
CCn1c(=O)/c(=C2\Sc3cc(C(F)(F)F)ccc3N2C)s/c1=C\c1scc[n+]1Cc1ccccc1	0.36 ± 0.03 µM		
COC(=O)Cn1c(=O)/c(=C2\Sc3ccccc3N2C)s/c1=C\c1scc[n+]1Cc1ccccc1	0.87 ± 0.14 µM	> 50 µM	
CCn1c(=O)/c(=C2\Sc3cc(Cl)ccc3N2C)s/c1=C\c1scc[n+]1Cc1cc(-c2ccccc2)no1	0.17 ± 0.01 µM		
CCn1c(=O)/c(=C2\Sc3cc(F)ccc3N2C)s/c1=C\c1scc[n+]1Cc1ccc(C(F)(F)F)o1	0.16 ± 0.03 µM		
CCn1c(=O)/c(=C2\Sc3ccc(Cl)cc3N2C)s/c1=C\c1scc[n+]1Cc1ccc(C(F)(F)F)o1	0.3 ± 0.02 µM		
COC(=O)Cn1c(=O)/c(=C2\Sc3cc(C(F)(F)F)ccc3N2C)s/c1=C\c1nccs1	> 30 µM	> 50 µM	
COC(=O)CCn1c(=O)/c(=C2\Sc3cc(Cl)ccc3N2C)s/c1=C\c1scc[n+]1Cc1ccccc1	0.24 ± 0.03 µM		
CCn1c(=O)/c(=C2\Sc3c(F)cccc3N2C)s/c1=C\c1cccc[n+]1CC	2.8 ± 0.2 µM	27.1 ± 3 µM	IC50 (MCF-7; second table): 0.8 ± 0.1 µM
CCOC(=O)c1ccc(C[n+]2ccsc2/C=c2\s/c(=C3/Sc4cc(Cl)ccc4N3C)c(=O)n2CC)o1	0.72 ± 0.08 µM		
CCn1c(=O)/c(=C2\Sc3ccc(Cl)cc3N2C)s/c1=C\c1scc[n+]1Cc1cc(C)on1	1.05 ± 0.09 µM		
CCn1c(=O)/c(=C2\Sc3cc(OC(F)(F)F)ccc3N2C)s/c1=C\c1scc[n+]1Cc1ccccc1	0.8 ± 0.1 µM	1.2 ± 0.1 µM	IC50 (MCF-7; second table): 0.4 ± 0.04 µM
